Data published in patent publication US20240094229A1, “CRISPR-CAS /TRANSCRIPTION FACTOR-BASED COMPETITION ASSAY FOR DETECTION OF MOLECULAR ANALYTES” (Arizona Board of Regents on Behalf of Arizona State …, priority 2022, published 2024).
Several values for one entry are separate records, joined by “and”; a condition that tells them apart may be missing. Identical values can stand only once. Counter-ions that a name gives are not always drawn.

Experiments:
Cas12a = assay: Toxicity study for DMSO on Cas12a activation; type: biochemical, Lachnospiraceae bacterium; settings: 0.03% DMSO
Description: The toxicity of solvents on Cas12a activation was tested by titrating in DMSO and monitoring the fluorescence output over two hours. A more significant decrease in activation was observed above 1% DMSO.

TetR [1] = target: T1, TetR (Escherichia coli, UniProt P04483); assay: TetR biosensor, Cas12a cleavage reaction with fluorescence readout, detection of aTc and Doxy; type: biochemical
T1 construct: His tag; made in house; host or cells: E. coli BL21 Star (DE3)
T1 sequence (P04483 whole entry): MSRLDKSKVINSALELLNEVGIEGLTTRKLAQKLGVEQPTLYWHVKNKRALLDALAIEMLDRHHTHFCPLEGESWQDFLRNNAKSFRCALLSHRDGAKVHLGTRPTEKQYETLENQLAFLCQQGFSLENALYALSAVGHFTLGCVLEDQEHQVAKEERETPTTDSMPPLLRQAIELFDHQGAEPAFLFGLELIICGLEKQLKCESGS
Description: (§1) Target and nontarget strands (NTS) were annealed at a 1:2 ratio in 1× TAE+12.5 mM Mg^2+ for 5 minutes at 95° C., then snap cooled. To form the DNA/TF complex, 100 nM dsTarget complexes were incubated with 10 μM corresponding transcription factors (unless otherwise stated) for 15 minutes at 37° C. in incubation buffer (40 mM Tris-HCl 8 mM MgCl2, 20 mM NaCl, pH 8). Small molecules were added next, following the same incubation procedure. Prior to addition, small molecules were suspended in water, DMSO or ethanol.
(§2) To monitor small molecule detection, 2 μl of the DNA/TF or DNA/TF/SM mixture were added to 10 μl total Cas12a cleavage reaction. […] Cleavage reactions were then immediately added to a microplate such as a Corning 384-well Black Flat Bottom Plates and read on a SynergyNeo2 Biotek fluorescence plate reader. Fluorescence measurements were taken with 487 nm excitation, 528 nm emission from the bottom of the plate for 2 hours. Fluorescence curves show raw fluorescence images unless otherwise stated.
(§3) Dose response curves were fit on OriginLab graphing software using equation 1. A1 is the minimum asymptote, A2 is the maximum asymptote, X is the log of a given dosage, and p is the hill slope. The center of the curve is equal to Log x0, so the half response or EC 50=10^Logx0.
The limit of detection for the biosensor was tested by introducing a range of small molecules from 4 nM to 40 μM using a 50:1 TetR dimer/dsDNA ratio (FIGS. 3E and F). […] The dose response curve of the biosensor was further assessed using the EC 50 value, which represents the concentration of a drug or analyte needed to reach a half maximum output signal based on a protein-analyte interaction.
Detection limits were also considered using the standard definition of LOD which considers LOD to be equal to the fluorescence of the blank sample plus three times the standard deviation (Table 7 and Table 8). The detection limit was determined using the equation (39):
Here, Sbl is equal to the mean of the SM negative samples and kSbl is the number of standard deviations of the negative sample added. For the Doxy experiments, 8 replicates were run and k=3. […] The detection limit (bolded) was then determined as the lowest concentration corresponding to a fluorescence signal great than Sm (the mean of small molecule negative samples+3× the standard deviation).

TetR [2] = target: T1, TetR; assay: TetR biosensor, lateral flow readout; type: biochemical; settings: for second (test) band on lateral flow strip: TetR biosensor, 20-nt gRNA, 30 minutes cleavage
Description: (§4) DNA/TF/small molecule samples were incubated and added to Cas12a reactions containing 106 nM Cas12a, 100 nM gRNA, and 200 nM FAM-[…]-Biotin (SEQ ID NO: 38) or 5′FAM-TTTT(internal T-Biotin)TTTTT-BHQ1 (SEQ ID NO: 38) reporter (IDT). The Cas12a concentration was increased to speed up the reaction time. Samples were incubated for 30 minutes at 37° C. on a thermocycler block. The 10 μl samples were added directly to the dipstick, HybriDetect Universal Lateral Flow Assays from Milenia Biotec (MGHD1) and placed in 100 μl of LF running buffer containing 50% PEG 800. PEG was used to slow capillary flow down, giving reporter strands more time to interact with gold nanoparticle-antibody conjugates before flowing down the assay. This provided cleaner negative results. After 2 minutes, dipsticks were removed and imaged using a cellphone camera.
The trans-cleavage capabilities of Cas12a can cleave any single-stranded DNA in the system, enabling a variety of chemical modifications to be used in the single-stranded reporter. This feature allows for implementation of a visible paper-based lateral flow readout system using reporters with FAM and biotin modifications on either end (19, 21-26). When paired with a lateral flow assay, the fully intact reporter binds to the first line (control line) along with an attached gold nanoparticle/antibody complex, and can be visualized, as shown in FIG. 10. When Cas12a enzyme is active, the reporter is cleaved and the portion containing the gold nanoparticle flows down the assay and can be visualized by the formation of the second band. Thus, the presence of two bands is used to indicate the presence of the target small molecule.
Next, the lateral flow readout was tested by introducing aTc, Doxy, and IPTG to the TetR biosensor. The samples were incubated with Cas12a cleavage mixture containing the 20-nt gRNA. […] Thus, the lateral flow assay can provide a visual readout mechanism for the biosensor, and the assay remains small-molecule specific.
To ensure the biosensor could provide adequate sensitivity, limit of detection experiments were repeated using TetR for detecting aTc and Doxy on the lateral flow assays.

MphR = MphR biosensor, lateral flow readout for erythromycin; type: biochemical; settings: 15 minutes of cleavage
Description: as §4, with “Samples were incubated for 30 minutes at 37° C. on a thermocycler block.” left out
The robustness of the lateral flow readout scheme was further tested using the TF MphR to detect the antibiotic erythromycin. […] A closer look at the mean pixel intensity of the bands for the assays for 1, 0.5, 0.25, 0.05 μM and no SM confirm a decrease below 1 μM but show a readable signal in the ˜100 nM range (FIG. 14B). Lateral flow readout was also tested using the LacI-IPTG biosensor. A higher ratio between the IPTG+ and − samples were seen even with high concentrations of Lad, but a discernible difference in SM+ samples was still visualized (FIG. 15).

CymR = target: T2, CymR (Pseudomonas putida, UniProt O33453, A171V/S110G); type: biochemical; settings: CymR biosensor, slope of kinetic curves
T2 construct: His tag; made in house
T2 sequence (O33453 whole entry S110G/A171V): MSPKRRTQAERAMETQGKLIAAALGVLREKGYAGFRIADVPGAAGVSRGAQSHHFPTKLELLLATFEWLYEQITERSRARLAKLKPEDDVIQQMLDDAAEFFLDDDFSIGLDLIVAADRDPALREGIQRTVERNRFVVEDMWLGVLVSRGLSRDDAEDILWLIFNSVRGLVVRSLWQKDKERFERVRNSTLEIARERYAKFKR
Description: as §1, §2, §3

[3] = EC 50, 10 μM TetR, 50:1 TetR dimer/dsDNA ratio, small molecule 4 nM to 40 μM
[4] = EC:50, 5 nM dsDNA, 500 nM TF (TetR), 24 nt gRNA, 1 h
[5] = EC:50, 50 nM dsDNA, 5 μM TF (TetR), 20 nt gRNA, 30 minutes of cleavage
[6] = EC:50, 50 nM dsDNA, 5 μM TF (TetR), 24 nt gRNA, 1 h
[7] = EC:50, 100 nM dsDNA, 2 μM TF (TetR), 1 h
[8] = EC:50, 100 nM dsDNA, 10 μM TF (TetR), 1 h, 50-fold TetR dimer:DNA
[9] = EC:50, 100 nM dsDNA, 20 μM TF (TetR), 1 h
[10] = 10 μM TetR, 50:1 TetR dimer/dsDNA ratio

Compound	EC50 (TetR [1]; [3]) [nM]	EC50 (TetR [1]; [4])	EC50 (TetR [1]; [5]) [nM]	EC50 (TetR [1]; [6]) [nM]	EC50 (TetR [1]; [7]) [nM]	EC50 (TetR [1]; [8]) [nM]	EC50 (TetR [1]; [9])	EC50 (TetR [2]) [nM]	second (test) band on lateral flow strip (TetR [2])	also measured
C[S+](C)[O-] [DMSO]										effects on Cas12a cleavage at experimental levels (Cas12a): not detrimental
C[C@H]1c2cccc(O)c2C(=O)C2=C(O)[C@]3(O)C(=O)C(C(N)=O)=C(O)[C@@H](N(C)C)[C@@H]3[C@@H](O)[C@@H]21 [Doxy, doxycycline]	766	87 nM and 88 nM	430	1590	110	950	4000 nM and 4220 nM	27		
CC[C@H]1OC(=O)[C@H](C)[C@@H](O[C@H]2C[C@@](C)(OC)[C@@H](O)[C@H](C)O2)[C@H](C)[C@@H](O[C@@H]2O[C@H](C)C[C@H](N(C)C)[C@H]2O)[C@](C)(O)C[C@@H](C)C(=O)[C@H](C)[C@@H](O)[C@]1(C)O [Erythromycin]										concentration range with readable signal (mean pixel intensity) (MphR): ~100 nM
CC(C)S[C@@H]1O[C@H](CO)[C@H](O)[C@H](O)[C@H]1O [IPTG, isopropyl β-D-1-thiogalactopyranoside]									little to no banding	
Cc1c2c(c(O)c3c(O)cccc13)C(=O)[C@]1(O)C(=O)C(C(N)=O)=C(O)[C@@H](N(C)C)[C@@H]1C2 [aTc, anhydrotetracycline-HCl]	4230	50 nM	1510	1770	840	4420	10600 nM	380	strong second band	concentration at complete loss of signal (TetR [1]; [10]): 0.4 µM; concentration giving maximum (near maximum) fluorescence output (TetR [1]; [10]): 10 µM; Fluorescence Mean (TetR [1]; 20 nt gRNA, Concentration 0.005 (unit not given)): 21303.25; Fluorescence Mean (TetR [1]; 20 nt gRNA, Concentration 0.01 (unit not given)): 21302; Fluorescence Mean (TetR [1]; 20 nt gRNA, Concentration 0.05 (unit not given)): 24918.25; Fluorescence Mean (TetR [1]; 20 nt gRNA, Concentration 0.1 (unit not given)): 32806; Fluorescence Mean (TetR [1]; 20 nt gRNA, Concentration 1 (unit not given)): 40622.5; Fluorescence Mean (TetR [1]; 24 nt gRNA, Concentration 0.005 (unit not given)): 9199.5; Fluorescence Mean (TetR [1]; 24 nt gRNA, Concentration 0.01 (unit not given)): 8795; Fluorescence Mean (TetR [1]; 24 nt gRNA, Concentration 0.05 (unit not given)): 12129.5; Fluorescence Mean (TetR [1]; 24 nt gRNA, Concentration 0.1 (unit not given)): 20059; Fluorescence Mean (TetR [1]; 24 nt gRNA, Concentration 1 (unit not given)): 30309.5; EC50 (TetR [1]; EC:50, 5 nM dsDNA, 500 nM TF (TetR), 20 nt gRNA, 30 minutes of cleavage): 51 nM; concentration showing a discernible signal (TetR [2]; lateral flow, 30 minutes of cleavage): 400 nM
CC(C)c1ccc(C(=O)O)cc1 [cuminic acid]										linear region of cleavage rate vs SM concentration (calibration curve) (CymR): ≤ 50 µM
